Experimental data reported in publication PMC12566703, “Design, Synthesis, In Vitro and In Silico Biological Evaluation of New Pyridine-2,5-Dicarboxylates Esters Bearing Natural Source Fragments as Anti-Trypanosomatid Agents” (Pharmaceutics, 2025).
Where “and” joins values, the source holds several entries; their conditions need not be identical. Equal entries are not always repeated. Where two headings read alike, the source gives them in different places.

Legend:
L. mexicana = tested on: L. mexicana; set-up: method as in doi:10.2174/1573407213666170405121810; conditions: pyridine compound of Figure 1A; read-out: IC50, leishmanicidal activity; cited from earlier work
Leishmania = tested on: Leishmania; set-up: method as in doi:10.1016/j.molstruc.2018.11.017; conditions: natural product scaffold of Figure 1B; read-out: IC50, leishmanicidal activity; cited from earlier work
T. cruzi = conditions: read-out: IC50, trypanocidal activity, cited from earlier work
[1] = tested on: L. mexicana (MHOM/MX/2017/UABJO17FCQEPS) (FCQEPS) promastigotes; test: In vitro leishmanicidal activity, MTT method, 48 h; assay type: cell-based, Leishmania mexicana; conditions: for IC50: 48 h, promastigotes, FCQEPS strain, read-out: L. mexicana IC50 (µM ± SD) FCQEPS; for Selectivity Index L. mexicana FCQEPS: CC50 (J774.2)/IC50
Procedure: (§1) To determine the leishmanicidal activity of pyridine-2,5-dicarboxylates, the parasites, in their logarithmic growth phase (5 × 10^5 parasites/mL), were cultured in 96-well microliter plates with the corresponding pyridine-2,5-dicarboxylate compound at different concentrations (0.78–100 µM). Compounds were dissolved in DMSO in a final volume of 200 µL for 48 h at 26 °C. Parasites treated with DMSO (0.2%) were used as a negative control, while treatments with Glucantime and Amphotericin B, at the same concentrations, were used as positive controls. The metabolic activity of the cells was determined using the 3-(4,5-Dimethylthiazol-2-yl)-2,5-diphenyltetrazolium bromide (MTT) method. IC50 was determined using probit analysis. Three independent experiments were performed in triplicate, and the data were analyzed for statistical significance (p < 0.05) using Biostat 5.3.0 software.

[2] = tested on: L. mexicana (MNYC/BZ/62/M379) (M379) promastigotes; test: In vitro leishmanicidal activity, MTT method, 48 h; assay type: cell-based, Leishmania mexicana; conditions: for IC50: 48 h, read-out: L. mexicana IC50 (µM ± SD) M379; for Selectivity Index L. mexicana M379: CC50 (J774.2)/IC50
Procedure: as §1

[3] = tested on: T. cruzi (NINOA) epimastigotes; test: In vitro trypanocidal activity, Alamar Blue assay, 48 h; assay type: cell-based, Trypanosoma cruzi; conditions: epimastigotes, NINOA strain
Procedure: (§2) Both strains were maintained in liver infusion tryptose (LIT) medium supplemented with 10% FBS and 0.1% penicillin-streptomycin. They were preserved by transferring 1 × 10^6 parasites/mL into a new culture medium every week. […] The metabolic activity was determined by the Alamar Blue assay. Briefly, after the incubation period, 20 µL of 2.5 mM resazurin solution was added to each well and incubated for 3 h. Three independent experiments were performed in triplicate. The half-maximum inhibitory concentration (IC50) was determined using probit analysis.

[4] = tested on: T. cruzi (A1) epimastigotes; test: as above; assay type: cell-based, Trypanosoma cruzi
Procedure: as §2

[5] = tested on: murine macrophage J774.2 cell line; test: Cytotoxicity assay, MTT method, 48 h; assay type: cell-based; conditions: read-out: Macrophage J774.2 CC50 (µM ± SD)
Procedure: (§3) A cytotoxicity assay was performed using the murine macrophage J774.2 cell line, which was recloned from the original ascites and solid tumor J774.1 (according to the manufacturer). The cells were cultured in RPMI medium supplemented with 10% SBF, 100 U […] penicillin, 100 µg/mL streptomycin, and glutamine (2 mM), and 5% CO2 atmosphere. The medium was changed every 2–3 days. Macrophages were used at 1 × 10^6 cells and were incubated with compounds at different concentrations (0.75–100 µM, respectively) at 37 °C for 48 h in a 5% CO2 atmosphere. DMSO was used as a negative control (0.2%). The metabolic activity of macrophages was determined by the MTT method. The percentage of cell viability was calculated, and the half-maximal cytotoxic concentration (CC50) was determined using probit analysis. Three independent assays were conducted in triplicate.

[6] = Cytotoxicity assay, MTT method, 48 h; assay type: cell-based, murine; conditions: mouse, J774.2 macrophage cells, J774.2 cell line, read-out: Macrophage J774.2 CC50 (µM ± SD)
Procedure: as §3

## Cc1ccc(O)c(C(=O)c2cnc3[nH]nc(C)c3c2)c1 [Compound 7]
L. mexicana
  IC50: 31 µM

## CC1=CC[C@H](C(C)(C)NC(=S)N/N=C/c2ccc([N+](=O)[O-])cc2)CC1 [Compound 8d]
Leishmania
  IC50: 2.4 µM

## Clc1ccc(-c2csc(N/N=C/c3ccccn3)n2)cc1Cl [Compound 11]
T. cruzi; pyridine compound of Figure 1A
  IC50: 4 µM

## CCOC(=O)c1nc(C)c(C(=O)OCCC(C)CCC=C(C)C)cc1-c1ccc(C)cc1 (stereo not shown) [Compound 11b]
[1]; Leishmania mexicana
  IC50: > 200 µM
[2]; Leishmania mexicana, promastigotes, M379 strain
  IC50: > 200 µM
[2]; promastigotes, M379 strain, classes by IC50
  Leishmanicidal activity class in words, M379 strain: did not have antiparasitic activity
[3]; Trypanosoma cruzi, 48 h, 48 h, read-out: T. cruzi IC50 (µM ± SD) NINOA
  IC50: > 200 µM
[3]; classes by IC50
  Trypanocidal activity class in words, NINOA strain: inactive
[4]; CC50 (J774.2)/IC50
  Selectivity Index T. cruzi A1: 3.3
[4]; Trypanosoma cruzi, 48 h, epimastigotes, A1 strain, 48 h, read-out: T. cruzi IC50 (µM ± SD) A1
  IC50: 51.6 ± 0.59 µM
[5]
  CC50: 169.8 ± 1.3 µM
[6]
  CC50 at 48 h: 169 µM

## CNC[C@H](O)[C@@H](O)[C@H](O)[C@H](O)CO.[O]=[Sb](=[O])[OH] [Glc, Glucantime, reference compound]
[1]
  Selectivity Index L. mexicana FCQEPS: 2.2
  IC50: 125 ± 11.6 µM
[1]; listed as Glucantime
  Selectivity Index L. mexicana FCQEPS: 2.18 and 2
  IC50: > 125 µM
[2]
  Selectivity Index L. mexicana M379: 2.0
[2]; listed as Glucantime
  Selectivity Index L. mexicana M379: 2.03
[2]; promastigotes, M379 strain, listed as Glucantime
  IC50: 134 µM and > 125 µM
[2]; promastigotes, M379 strain
  IC50: 134 ± 4.32 µM
[5]
  CC50: 273 µM

## CC1=CC[C@@H](C(C)(C)Nc2nnc(-c3ccc(C)cc3)s2)CC1 [TDZ 2]
T. cruzi; natural product scaffold of Figure 1B
  IC50: 1.3 µM
